Experimental data from US20190247371A1, “METHODS FOR TREATING SMALL CELL LUNG CANCERS BY USING PHARMACEUTICAL COMPOSITIONS OR COMBINATIONS COMPRISING INDOLIZINO[6,7-B]INDOLE DERIVATIVES” (priority 2016, published 2019).
Like-named read-outs stand apart in the source and are kept apart here.

Tests used:
H82 cells = assay: alamarBlue cytotoxicity assay, SCLC H82 cells; assay type: cell-based; conditions: read-out: IC50, concentration required to inhibit cell growth by 50%
Experimental: (§1) The inhibitory effect of BO-1978 on the cell growth of SCLC cell lines in vitro was examined. The cytotoxicity was assayed using alamarBlue® reagent (AbD Serotec) as previously described in U.S. Pat. No. 8,703,951 B2. In brief, H82, H211 and H526 cells were seeded to a 96 well plate with 5000, 1000 and 3000 cells per well, respectively, and incubated for 24 h. The growing cells were treated with BO-1978, cisplatin, etoposide or irinotecan at serial-diluted concentrations for 72 h at 37° C. An aliquot of alamarBlue® reagent (AbD Serotec) was added and the cultures were incubated for 5 h. The fluorescence at excitation 530 nm and emission 590 nm was read with a plate reader. The proliferation rate was calculated according to the manufacturer's instruction. The values of IC50 (50% inhibition concentration) for each compound were determined from dose-effect relationship using the CompuSyn software (Chou 2010^44).

H211 cells [1] = assay: alamarBlue cytotoxicity assay, SCLC H211 cells; assay type: cell-based; conditions: read-out: IC50, concentration required to inhibit cell growth by 50%
Experimental: as §1

H526 cells [2] = assay: alamarBlue cytotoxicity assay, SCLC H526 cells; assay type: cell-based; conditions: read-out: IC50, concentration required to inhibit cell growth by 50%
Experimental: as §1

SCLC H526 cells = assay: SCLC H526 tumor xenograft model, single agents; assay type: in vivo; conditions: for body weight change: doses within MTD: BO-1978 40 mg/kg QD×5, etoposide 10 mg/kg Q2D×3, irinotecan 30 mg/kg QD×6, cisplatin 6 mg/kg Q4D×3, FIG. 2B
Experimental: H526 cells (1×10^7) were subcutaneously implanted into nude mice. […] Tumor size and body weight were taken at the time indicated. A, average tumor size changes; B, average body weight changes; and C, Kaplan-Meyer survival curves.
The animals used in this study were treated exactly according to the guidelines of the Academia Sinica Institutional Animal Care and Utilization Committee. Male athymic nude mice in 5 weeks of age were obtained from the National Laboratory Animal Center (Taipei, Taiwan) and housed for 1 week before performing experiments H526 cells (1×10^7) were subcutaneously implanted into nude mice (five groups, each 4 mice). […] Etoposide (10 mg/kg Q2D×3), irinotecan (30 mg/kg QD×6), and cisplatin (6 mg/kg Q4D×3) were used as the positive control and were administered as indicated.

SCLC H211 cells [3] = assay: SCLC H211 tumor xenograft model, single agents; assay type: in vivo, nude mice; conditions: same dosages and route as H526 study, FIG. 3
Experimental: H211 (3×10^6) were subcutaneously implanted into nude mice. When rumor size reached 100-200 mm^3, BO-1978, etoposide, irinotecan, and cisplatin were i.v. administered as indicated. Tumor size and body weight were taken at the time indicated. A, tumor size; and B, body weight.
In another experiment, the effect of BO-1978 on the inhibition of SCLC H211 cells, a fast growing cell line, was evaluated in xenograft model. Mice were treated with the tested compounds under the same dosages and administration route as described above.

H526 cells [4] = assay: alamarBlue combined treatment cytotoxicity, H526 cells; assay type: cell-based; conditions: co-treated with irinotecan at various ratios, 72 h, FIG. 4
Experimental: Cell survival was analyzed using alamarBlue assay. CI indicates combination index A, BO-1978 and cisplatin; B, BO-1978 and etoposide; and C, BO-1978 and irinotecan.
(§2) Combination therapy is therapy that uses more than one drug for therapy. […] The resulting combination index (CI) theorem of Chou-Talalay offers quantitative definition for additive effect (CI=1), synergism (CI<1), and antagonism (CI>1) in drug combinations (Chou 2010^44).

H211 cells [5] = assay: alamarBlue combined treatment cytotoxicity, H211 cells; assay type: cell-based; conditions: co-treated with irinotecan at various ratios, 72 h, FIG. 5
Experimental: H211 cells were seeded and treated with various concentrations of BO-1978, or therapeutic agents either alone or in combination for 72 h. Cell survival was analyzed using alamarBlue assay. CI indicates combination index. A, BO-1978 and cisplatin; B, BO-1978 and etoposide; and C, BO-1978 and irinotecan.
as §2

SCLC H526 xenografts = assay: SCLC H526 xenograft, BO-1978 and irinotecan alone or in combination; assay type: in vivo, nude mice
Experimental: H526 cells (1×10^7) were subcutaneously implanted into nude mice. When tumor size reached 100-200 mm^3, BO-1978 and irinotecan, either alone or in combination were i.v. administered as indicated. Tumor size and body weight were taken at the time indicated A, tumor size; and B, body weight.
The mice (n=5) bearing SCLC H526 xenografts were treated with BO-1978 (alone, 40 mg/kg, Q2D×5), irinotecan (alone, 30 mg/kg, Q2D×5), and BO-1978 (40 mg/kg)+irinotecan (30 mg/kg) (Q2D×5) via iv inj.

SCLC H211 = SCLC H211 xenograft, BO-1978 and irinotecan alone or in combination; assay type: in vivo, nude mice
Text: H211 cells (3×10^6) were subcutaneously implanted into nude mice. When tumor size reached 100-200 mm^3, BO-1978 and irinotecan, cither alone or in combination were i.v. administered as indicated. Tumor size and body weight were taken at the time indicated. A, tumor size; and B, body weight.
In another experiment, the therapeutic efficacy of BO-1978 (alone) or in combination with irinotecan against SCLC H211 was investigated in xenograft models (FIG. 7). The H211 bearing mice (n=5) were administered with BO-1978 (alone, 40 mg/kg, QD×5), irinotecan (alone, 30 mg/kg, QD×5), and BO-1978 (40 mg/kg)+irinotecan (30 mg/kg) (QD×5) via iv inj.

SCLC H211 cells [6] = assay: Cell cycle analysis by flow cytometry, H211 cells; assay type: cell-based; conditions: 24, 48, 72 h, FIG. 9
Experimental: H211 cells were treated with various concentrations of (A) BO-1978, (B) BMN-673, or (C) BO-1978 plus BMN-673 at 24, 48, and 72 h. At the end of treatment, the cells were harvested by trypsinization, fixed in ice-cold ethanol, stained with propidium iodide, and subjected to cell cycle analysis with a flow cytometer.
In the present invention, the SCLC H211 cells were treated with the combination of BO-1978 and BMN 673 or HY-10130 for 72 h. Cell survival was analyzed by PrestoBlue Assay. The combination index (CI) was calculated using CompuSyn software (Chou 2006^61).

NSCLC cells = conditions: in vitro; cited from earlier work
[7] = test system: EGFR wild-type and mutant NSCLC tumors; conditions: cited from earlier work
[8] = preclinical toxicity studies; cited from earlier work
PC9/gef B4 cells = conditions: cited from earlier work

SMILES: CCc1c(CO)c(CO)c2n1Cc1c(c3ccccc3n1C)C2 [BO-1978, [3-ethyl-6-methyl-6,11-dihydro-5H-indolizino[6,7-b]indole-1,2-diyl]dimethanol]
- IC50 (H82 cells; Homo sapiens, NCI-H82, H82, 72 h, mean ± S.D. of 3 independent experiments): 350 ± 280 nM
- IC50 (H211 cells [1]; Homo sapiens, NCI-H211, H211, 72 h, mean ± S.D. of 3 independent experiments): 148 ± 1 nM
- IC50 (H526 cells [2]; Homo sapiens, NCI-H526, H526, 72 h, mean ± S.D. of 3 independent experiments): 76 ± 26 nM
- therapeutic effect on tumor size (SCLC H526 cells; BO-1978 40 mg/kg QD×5 iv, FIG. 2A): more efficacious than etoposide, irinotecan and cisplatin
- body weight change (SCLC H526 cells): did not cause body weight lost
- survival term (SCLC H526 cells; one out of 4 mice, FIG. 2C): > 430 days
- inhibition of tumor growth (SCLC H211 cells [3]): more potent than the drugs used for comparison
- cytotoxicity of co-treatment (H526 cells [4]): enhanced the cytotoxicity
- cytotoxicity of co-treatment (H211 cells [5]): enhanced the cytotoxicity
- tumor growth suppression (SCLC H526 xenografts; 40 mg/kg Q2D×5 iv, n=5): significantly suppressed tumor growth
- mice with complete remission (CR) (SCLC H526 xenografts; day 14, Q2D×5 iv): 4/5
- mice with tumor <100 mm3 (SCLC H526 xenografts; day 14, Q2D×5 iv): 1/5
- therapeutic efficacy, mono-drug comparison (SCLC H211; 40 mg/kg QD×5 iv, n=5): more potent than irinotecan (alone)
- day of tumor relapse (SCLC H211; QD×5 iv): 18 days
- day tumor CR was seen (SCLC H211; QD×5 iv): 14 days
- effect on G2/M phase of cell cycle (SCLC H211 cells [6]): induced severe G2/M arrest
- subG1 cells (apoptotic death) (SCLC H211 cells [6]): appearance of the subG1 cells at high doses
- cytotoxicity against cell growth of various NSCLC cells (NSCLC cells): significant cytotoxicity
- body weight loss ([7]; xenograft and orthotopic lung tumor models): negligible body weight loss
- therapeutic efficacy in nude mice bearing NSCLC ([7]; xenograft and orthotopic models): potent therapeutic efficacy
- toxicity in mice [8]: does not cause apparent toxicity
- killing of cells with acquired gefitinib resistance (PC9/gef B4 cells): effectively kills

SMILES: N.N.[Cl][Pt][Cl] [Cisplatin, cis-diaminedichloroplatinum]
- IC50 (H82 cells; H82, 72 h, mean ± S.D. of 3 independent experiments): 340 ± 80 nM
- IC50 (H211 cells [1]; H211, 72 h, mean ± S.D. of 3 independent experiments): 570 ± 290 nM
- IC50 (H526 cells [2]; H526, 72 h, mean ± S.D. of 3 independent experiments): 660 ± 250 nM
- day mice were sacrificed because tumor size was over 2,500 mm^3 (SCLC H526 cells): 35 days
- body weight change (SCLC H526 cells): did not cause body weight lost

SMILES: Cn1ncnc1[C@H]1c2n[nH]c(=O)c3cc(F)cc(c23)N[C@@H]1c1ccc(F)cc1 [BMN 673, (8S,9R)-5-Fluoro-8-(4-fluorophenyl)-9-(1-methyl-1H-1,2,4-triazol-5-yl)-2,7,8,9-tetrahydro-3H-pyrido[4,3,2-de]phthalazin-3-one, reference compound]
- effect on G2/M phase of cell cycle (SCLC H211 cells [6]): delayed the progression of the G2/M phase
- subG1 cells (apoptotic death) (SCLC H211 cells [6]): did not induce subG1 cells

SMILES: CCc1c2c(nc3ccc(OC(=O)N4CCC(N5CCCCC5)CC4)cc13)-c1cc3c(c(=O)n1C2)COC(=O)[C@]3(O)CC [Irinotecan]
- IC50 (H82 cells; Homo sapiens, NCI-H82, 72 h): 1200 ± 70 nM
- IC50 (H211 cells [1]; Homo sapiens, NCI-H211, 72 h): 30 ± 10 nM
- IC50 (H526 cells [2]; Homo sapiens, NCI-H526, 72 h): 1180 ± 570 nM
- day mice were sacrificed because tumor size was over 2,500 mm^3 (SCLC H526 cells): 45 days
- body weight change (SCLC H526 cells): did not cause body weight lost
- day of tumor relapse (SCLC H526 xenografts; 30 mg/kg Q2D×5 iv): 15 days

SMILES: COc1cc([C@@H]2c3cc4c(cc3[C@@H](O[C@@H]3O[C@@H]5CO[C@@H](C)O[C@H]5[C@H](O)[C@H]3O)[C@H]3COC(=O)[C@H]23)OCO4)cc(OC)c1O [Etoposide]
- IC50 (H82 cells; Homo sapiens, NCI-H82, 72 h): 146 ± 2 nM
- IC50 (H211 cells [1]; Homo sapiens, NCI-H211, 72 h): 70 ± 30 nM
- IC50 (H526 cells [2]; Homo sapiens, NCI-H526, 72 h): 50 ± 20 nM
- day mice were sacrificed because tumor size was over 2,500 mm^3 (SCLC H526 cells): 35 days
- body weight change (SCLC H526 cells): did not cause body weight lost
